# What was measured:
# [1] = tested on: sperm in vas; assay: non-GLP study, in vivo effect on motility and viability of sperm in vas; settings: injection, 0.2 mg/kg body weight; saline injected controls 35%
# Description: In another non-GLP study, the in vivo effect of diltiazem on motility and viability of sperm in vas was observed.
# [2] = tested on: vasa deferentia; settings: rat, in vivo
# Protocol: A dose ranging non-GLP study was conducted in rats to determine the local toxic effect of diltiazem on vasa deferentia.
smiles,measurement,setting,value
COc1ccc([C@@H]2Sc3ccccc3N(CCN(C)C)C(=O)[C@@H]2OC(C)=O)cc1 [diltiazem],percentage of non-viable sperm,[1],92%
same,changes in the histology of the vas,[2]; 0.2 mg/kg,did not cause any changes in the histology of the vas
same,effect on the vas,[2]; 2 mg/kg,no effect on the vas
same,mortality of rats,[2]; 50 mg/kg,no mortality
